Results as given in US6355799B1, “Substituted benzene compounds, process for their preparation, and herbicidal and defoliant compositions containing them” (ISK Americas Incorporated, priority 1997, dated 2002).

Columns and labels:
Type in all cases: in vivo
[1] = tested on: redroot pigweed (Amaranthus retroflexus, AMARE); test: Pre-emerge test, greenhouse herbicide activity screening; details: rating scale 0-100, 14 days after application
In short: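 Visual ratings on a 0-100 scale (0 no damage, 100 all plants dead) were taken at 14 days after treatment. Rates of 15-1000 g ai/ha in acetone, 187 l/ha, were sprayed onto soil one day after planting (pre-emerge) or onto 2-3 leaf plants with 0.25% v/v surfactant (post-emerge).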

[2] = tested on: barnyardgrass (Echinochloa crus-galli, ECHCG); test: as above; details: rating scale 0-100, 14 days after application
In short: (§1)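 Compounds in acetone were track-sprayed at 15–1000 g ai/ha: pre-emergence onto soil sown the previous day, then top-watered to incorporate and later bottom-watered; post-emergence onto 2–3 leaf plants with 0.25% v/v surfactant, bottom-watered only. Ratings on a 0–100 phytotoxicity scale were taken at day 14.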

[3] = tested on: green foxtail (Setaria viridis, SETVI); test: as above; details: rating scale 0-100, 14 days after application
In short: as §1

[4] = tested on: ivyleaf morningglory (Ipomoea hederacea, IPOHE); test: as above; details: rating scale 0-100, 14 days after application
In short: as §1

[5] = tested on: johnsongrass (Sorghum halepense, SORHA); test: as above; details: rating scale 0-100, 14 days after application
In short: as §1

[6] = tested on: lambsquarters (Chenopodium album, CHEAL); test: as above; details: rating scale 0-100, 14 days after application
In short: as §1

[7] = tested on: large crabgrass (Digitaria sanguinalis, DIGSA); test: as above; details: rating scale 0-100, 14 days after application
In short: as §1

[8] = tested on: sicklepod (Cassia obtusifolia, CASOB); test: as above; details: rating scale 0-100, 14 days after application
In short: as §1

[9] = tested on: velvetleaf (Abutilon theophrasti, ABUTH); test: as above; details: rating scale 0-100, 14 days after application
In short: as §1

[10] = tested on: field corn (Zea mays L., var. Dekalb 535, CORN); test: Pre-emerge test, crop safety; details: rating scale 0-100, 14 days after application
In short: (§2)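 Compounds in acetone were track-sprayed at 15-1000 g ai/ha (187 l/ha) on sandy loam pots: pre-emerge one day after seeding, post-emerge at 2-3 leaf stage with 0.25% v/v non-ionic surfactant. Phytotoxicity was rated 14 days later on a 0 (no damage) to 100 (complete death) scale.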

[11] = tested on: upland rice (Oryza sp., var. Tebonnet, RICE); test: Pre-emerge test, crop safety; details: rating scale 0-100, 14 days after application
In short: as §2

[12] = tested on: barnyardgrass (Echinochloa crus-galli, ECHCG); test: Post-emerge test, greenhouse herbicide activity screening; details: rating scale 0-100 (0 no damage, 100 complete death), 14 days after application
In short: as §2

[13] = tested on: common ragweed (Ambrosia artemisizfolia L., AMBEL); test: as above; details: rating scale 0-100 (0 no damage, 100 complete death), 14 days after application
In short: as §2

[14] = tested on: green foxtail (Setaria viridis, SETVI); test: as above; details: rating scale 0-100 (0 no damage, 100 complete death), 14 days after application
In short: as §2

[15] = tested on: ivyleaf morningglory (Ipomoea hederacea, IPOHE); test: as above; details: rating scale 0-100 (0 no damage, 100 complete death), 14 days after application
In short: as §2

[16] = tested on: johnsongrass (Sorghum halepense, SORHA); test: as above; details: rating scale 0-100 (0 no damage, 100 complete death), 14 days after application
In short: as §2

[17] = tested on: lambsquarters (Chenopodium album, CHEAL); test: as above; details: rating scale 0-100 (0 no damage, 100 complete death), 14 days after application
In short: as §2

[18] = tested on: large crabgrass (Digitaria sanguinalis, DIGSA); test: as above; details: rating scale 0-100 (0 no damage, 100 complete death), 14 days after application
In short: as §2

[19] = tested on: redroot pigweed (Amaranthus retroflexus, AMARE); test: as above; details: rating scale 0-100 (0 no damage, 100 complete death), 14 days after application
In short: as §2

[20] = tested on: sicklepod (Cassia obtusifolia, CASOB); test: as above; details: rating scale 0-100 (0 no damage, 100 complete death), 14 days after application
In short: as §2

[21] = tested on: velvetleaf (Abutilon theophrasti, ABUTH); test: as above; details: rating scale 0-100 (0 no damage, 100 complete death), 14 days after application
In short: as §2

[22] = tested on: field corn (Zea mays L., var. Dekalb 535, CORN); test: Post-emerge test, crop safety; details: rating scale 0-100 (0 no damage, 100 complete death), 14 days after application
In short: (§3)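 Rating: 0–100 visual injury, 14 DAA. Application: acetone, 187 l/ha, 15–1000 g ai/ha, flat-fan track sprayer with nozzle 40–45 cm above soil or canopy. Post-emerge runs used 0.25% v/v surfactant on 2–3 leaf plants.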

[23] = tested on: upland rice (Oryza sp., var. Tebonnet, RICE); test: Post-emerge test, crop safety; details: rating scale 0-100 (0 no damage, 100 complete death), 14 days after application
In short: as §3

CCCCCOC(=O)C(C)(Cl)Cc1c(OC)c(Cl)cc(F)c1-n1c(=O)cc(C(F)(F)F)n(C)c1=O (centres unmarked) [14-37]
Pre-emerge herbicidal activity, phytotoxicity rating AMARE ([1]; 63 g ai/ha): 100 | Pre-emerge herbicidal activity, phytotoxicity rating AMARE ([1]; 250 g ai/ha): 100 | Pre-emerge herbicidal activity, phytotoxicity rating ECHCG ([2]; 63 g ai/ha): 0 | Pre-emerge herbicidal activity, phytotoxicity rating ECHCG ([2]; 250 g ai/ha): 99 | Pre-emerge herbicidal activity, phytotoxicity rating SETVI ([3]; 63 g ai/ha): 0 | Pre-emerge herbicidal activity, phytotoxicity rating SETVI ([3]; 250 g ai/ha): 95 | Pre-emerge herbicidal activity, phytotoxicity rating IPOHE ([4]; 63 g ai/ha): 0 | Pre-emerge herbicidal activity, phytotoxicity rating IPOHE ([4]; 250 g ai/ha): 0 | Pre-emerge herbicidal activity, phytotoxicity rating SORHA ([5]; 63 g ai/ha): 0 | Pre-emerge herbicidal activity, phytotoxicity rating SORHA ([5]; 250 g ai/ha): 0 | Pre-emerge herbicidal activity, phytotoxicity rating CHEAL ([6]; 63 g ai/ha): 100 | Pre-emerge herbicidal activity, phytotoxicity rating CHEAL ([6]; 250 g ai/ha): 100 | Pre-emerge herbicidal activity, phytotoxicity rating DIGSA ([7]; 63 g ai/ha): 0 | Pre-emerge herbicidal activity, phytotoxicity rating DIGSA ([7]; 250 g ai/ha): 100 | Pre-emerge herbicidal activity, phytotoxicity rating CASOB ([8]; 63 g ai/ha): 0 | Pre-emerge herbicidal activity, phytotoxicity rating CASOB ([8]; 250 g ai/ha): 0 | Pre-emerge herbicidal activity, phytotoxicity rating ABUTH ([9]; 63 g ai/ha): 90 | Pre-emerge herbicidal activity, phytotoxicity rating ABUTH ([9]; 250 g ai/ha): 100 | Pre-emerge phytotoxicity rating, crop damage CORN ([10]; 63 g ai/ha): 0 | Pre-emerge phytotoxicity rating, crop damage CORN ([10]; 250 g ai/ha): 0 | Pre-emerge phytotoxicity rating, crop damage RICE ([11]; 63 g ai/ha): 0 | Pre-emerge phytotoxicity rating, crop damage RICE ([11]; 250 g ai/ha): 80 | Post-emerge Herbicidal Activity, phytotoxicity rating ECHCG ([12]; Rate 63 g ai/ha): 100 | Post-emerge Herbicidal Activity, phytotoxicity rating ECHCG ([12]; Rate 250 g ai/ha): 100 | Post-emerge Herbicidal Activity, phytotoxicity rating AMBEL ([13]; Rate 63 g ai/ha): 100 | Post-emerge Herbicidal Activity, phytotoxicity rating AMBEL ([13]; Rate 250 g ai/ha): 100 | Post-emerge Herbicidal Activity, phytotoxicity rating SETVI ([14]; Rate 63 g ai/ha): 90 | Post-emerge Herbicidal Activity, phytotoxicity rating SETVI ([14]; Rate 250 g ai/ha): 100 | Post-emerge Herbicidal Activity, phytotoxicity rating IPOHE ([15]; Rate 63 g ai/ha): 30 | Post-emerge Herbicidal Activity, phytotoxicity rating IPOHE ([15]; Rate 250 g ai/ha): 100 | Post-emerge Herbicidal Activity, phytotoxicity rating SORHA ([16]; Rate 63 g ai/ha): 0 | Post-emerge Herbicidal Activity, phytotoxicity rating SORHA ([16]; Rate 250 g ai/ha): 30 | Post-emerge Herbicidal Activity, phytotoxicity rating CHEAL ([17]; Rate 63 g ai/ha): 100 | Post-emerge Herbicidal Activity, phytotoxicity rating CHEAL ([17]; Rate 250 g ai/ha): 100 | Post-emerge Herbicidal Activity, phytotoxicity rating DIGSA ([18]; Rate 63 g ai/ha): 80 | Post-emerge Herbicidal Activity, phytotoxicity rating DIGSA ([18]; Rate 250 g ai/ha): 100 | Post-emerge Herbicidal Activity, phytotoxicity rating AMARE ([19]; Rate 63 g ai/ha): 100 | Post-emerge Herbicidal Activity, phytotoxicity rating AMARE ([19]; Rate 250 g ai/ha): 100 | Post-emerge Herbicidal Activity, phytotoxicity rating CASOB ([20]; Rate 63 g ai/ha): 20 | Post-emerge Herbicidal Activity, phytotoxicity rating CASOB ([20]; Rate 250 g ai/ha): 50 | Post-emerge Herbicidal Activity, phytotoxicity rating ABUTH ([21]; Rate 63 g ai/ha): 100 | Post-emerge Herbicidal Activity, phytotoxicity rating ABUTH ([21]; Rate 250 g ai/ha): 100 | Post-emerge phytotoxicity rating CORN (crop damage) ([22]; Rate 63 g ai/ha): 20 | Post-emerge phytotoxicity rating CORN (crop damage) ([22]; Rate 250 g ai/ha): 95 | Post-emerge phytotoxicity rating RICE (crop damage) ([23]; Rate 63 g ai/ha): 70 | Post-emerge phytotoxicity rating RICE (crop damage) ([23]; Rate 250 g ai/ha): 100

COc1c(Cl)cc(F)c(-n2c(=O)cc(C(F)(F)F)n(C)c2=O)c1CC(C)(Cl)C(=O)OC(C)C (centres unmarked) [14-39]
Pre-emerge herbicidal activity, phytotoxicity rating AMARE ([1]; 63 g ai/ha): 100 | Pre-emerge herbicidal activity, phytotoxicity rating AMARE ([1]; 250 g ai/ha): 100 | Pre-emerge herbicidal activity, phytotoxicity rating ECHCG ([2]; 63 g ai/ha): 10 | Pre-emerge herbicidal activity, phytotoxicity rating ECHCG ([2]; 250 g ai/ha): 95 | Pre-emerge herbicidal activity, phytotoxicity rating SETVI ([3]; 63 g ai/ha): 70 | Pre-emerge herbicidal activity, phytotoxicity rating SETVI ([3]; 250 g ai/ha): 100 | Pre-emerge herbicidal activity, phytotoxicity rating IPOHE ([4]; 63 g ai/ha): 0 | Pre-emerge herbicidal activity, phytotoxicity rating IPOHE ([4]; 250 g ai/ha): 0 | Pre-emerge herbicidal activity, phytotoxicity rating SORHA ([5]; 63 g ai/ha): 0 | Pre-emerge herbicidal activity, phytotoxicity rating SORHA ([5]; 250 g ai/ha): 60 | Pre-emerge herbicidal activity, phytotoxicity rating CHEAL ([6]; 63 g ai/ha): 100 | Pre-emerge herbicidal activity, phytotoxicity rating CHEAL ([6]; 250 g ai/ha): 100 | Pre-emerge herbicidal activity, phytotoxicity rating DIGSA ([7]; 63 g ai/ha): 95 | Pre-emerge herbicidal activity, phytotoxicity rating DIGSA ([7]; 250 g ai/ha): 100 | Pre-emerge herbicidal activity, phytotoxicity rating CASOB ([8]; 63 g ai/ha): 0 | Pre-emerge herbicidal activity, phytotoxicity rating CASOB ([8]; 250 g ai/ha): 20 | Pre-emerge herbicidal activity, phytotoxicity rating ABUTH ([9]; 63 g ai/ha): 100 | Pre-emerge herbicidal activity, phytotoxicity rating ABUTH ([9]; 250 g ai/ha): 100 | Pre-emerge phytotoxicity rating, crop damage CORN ([10]; 63 g ai/ha): 0 | Pre-emerge phytotoxicity rating, crop damage CORN ([10]; 250 g ai/ha): 0 | Pre-emerge phytotoxicity rating, crop damage RICE ([11]; 63 g ai/ha): 0 | Pre-emerge phytotoxicity rating, crop damage RICE ([11]; 250 g ai/ha): 80 | Post-emerge Herbicidal Activity, phytotoxicity rating ECHCG ([12]; Rate 63 g ai/ha): 100 | Post-emerge Herbicidal Activity, phytotoxicity rating ECHCG ([12]; Rate 250 g ai/ha): 100 | Post-emerge Herbicidal Activity, phytotoxicity rating AMBEL ([13]; Rate 63 g ai/ha): 50 | Post-emerge Herbicidal Activity, phytotoxicity rating AMBEL ([13]; Rate 250 g ai/ha): 50 | Post-emerge Herbicidal Activity, phytotoxicity rating SETVI ([14]; Rate 63 g ai/ha): 95 | Post-emerge Herbicidal Activity, phytotoxicity rating SETVI ([14]; Rate 250 g ai/ha): 100 | Post-emerge Herbicidal Activity, phytotoxicity rating IPOHE ([15]; Rate 63 g ai/ha): 20 | Post-emerge Herbicidal Activity, phytotoxicity rating IPOHE ([15]; Rate 250 g ai/ha): 50 | Post-emerge Herbicidal Activity, phytotoxicity rating SORHA ([16]; Rate 63 g ai/ha): 30 | Post-emerge Herbicidal Activity, phytotoxicity rating SORHA ([16]; Rate 250 g ai/ha): 40 | Post-emerge Herbicidal Activity, phytotoxicity rating CHEAL ([17]; Rate 63 g ai/ha): 100 | Post-emerge Herbicidal Activity, phytotoxicity rating CHEAL ([17]; Rate 250 g ai/ha): 100 | Post-emerge Herbicidal Activity, phytotoxicity rating DIGSA ([18]; Rate 63 g ai/ha): 60 | Post-emerge Herbicidal Activity, phytotoxicity rating DIGSA ([18]; Rate 250 g ai/ha): 100 | Post-emerge Herbicidal Activity, phytotoxicity rating AMARE ([19]; Rate 63 g ai/ha): 100 | Post-emerge Herbicidal Activity, phytotoxicity rating AMARE ([19]; Rate 250 g ai/ha): 100 | Post-emerge Herbicidal Activity, phytotoxicity rating CASOB ([20]; Rate 63 g ai/ha): 60 | Post-emerge Herbicidal Activity, phytotoxicity rating CASOB ([20]; Rate 250 g ai/ha): 100 | Post-emerge Herbicidal Activity, phytotoxicity rating ABUTH ([21]; Rate 63 g ai/ha): 99 | Post-emerge Herbicidal Activity, phytotoxicity rating ABUTH ([21]; Rate 250 g ai/ha): 100 | Post-emerge phytotoxicity rating CORN (crop damage) ([22]; Rate 63 g ai/ha): 30 | Post-emerge phytotoxicity rating CORN (crop damage) ([22]; Rate 250 g ai/ha): 50 | Post-emerge phytotoxicity rating RICE (crop damage) ([23]; Rate 63 g ai/ha): 90 | Post-emerge phytotoxicity rating RICE (crop damage) ([23]; Rate 250 g ai/ha): 100
